Measurements: patent US8697877B2, “Oxyindole derivatives with motilin receptor agonistic activity” (RaQualia Pharma Inc., priority 2009, dated 2014)

biological target: T1, human motilin receptor (GPR38) (Homo sapiens, UniProt O43193); assay: GPR38 (Motilin Receptor) Functional Assay, NFAT-beta-lactamase reporter in CHO-K1 cells; assay type: cell-based; details: not given
T1 construct: expressed in transfected cells; host or cells: CHO-K1
Method: The potencies and efficacies of the compounds of this invention for GPR38 can be determined by reporter assay performed on the human cloned receptor as described herein.
GPR38 (Motilin Receptor) Functional Assay
A CHO-K1 cell line stably transfected NFAT-beta-lactamase reporter and human motilin receptor gene was used. The cells were cultured in culture medium (Dulbecco's modified eagle medium containing 10% fetal bovine serum, 1 mM sodium pyruvate, 0.1 mM MEM nonessential amino acids, 25 mM HEPES buffer, 50 units/mL penicillin, 50 microg/mL streptomycin, 100 microg/mL zeocin, and 500 microg/mL G418). The cells were harvested with 0.05% trypsin EDTA and centrifuged. The cell pellets were resuspended in the culture medium and plated into a black/clear bottom 384-well plate at a density of 8000 cells per well, then incubated at 37° C. with 5% CO2 for over night (about 20 hours). On the day of assay, the culture medium was aspirated and 20 microL of assay medium (Dulbecco's modified eagle medium containing 100 units/mL penicillin and 100 microg/mL streptomycin) was added to each well, then the cell plates were placed in incubator at 37° C. with 5% CO2 for 1.5 hours. Compounds were prepared in 100% DMSO and these were diluted to 5× of final concentration with assay buffer (Hanks balanced salt solution, 20 mM HEPES, and 0.1% BSA), then dispensed into 384-well plate (5 microL/well). After incubation at 37° C. with 5% CO2 for 4.5 hours, CCF4-AM loading solution (Invitrogen Corp.) was added to each well. After incubation for 2 hours at room temperature, fluorescence intensities were measured by using plate reader FDSS (Hamamatsu Photonics K. K.) with excitation 400 nm, emission 465 nm/540 nm. Agonistic activity (EC50) was calculated from the sigmoidal dose-response curve using GraphPad Prism software (GraphPad Software, Inc.).

T1 sequence (O43193 whole entry): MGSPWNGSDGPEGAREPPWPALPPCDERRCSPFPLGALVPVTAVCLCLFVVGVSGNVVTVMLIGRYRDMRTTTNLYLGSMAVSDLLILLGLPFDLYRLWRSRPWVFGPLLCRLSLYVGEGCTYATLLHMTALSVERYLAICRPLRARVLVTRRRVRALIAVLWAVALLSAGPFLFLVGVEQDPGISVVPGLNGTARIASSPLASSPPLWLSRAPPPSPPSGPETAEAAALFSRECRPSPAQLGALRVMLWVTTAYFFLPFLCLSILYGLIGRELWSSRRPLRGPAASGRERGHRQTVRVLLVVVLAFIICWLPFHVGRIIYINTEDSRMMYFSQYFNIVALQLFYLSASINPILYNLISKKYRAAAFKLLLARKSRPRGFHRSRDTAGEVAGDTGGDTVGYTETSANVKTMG

Row | Structure (SMILES) | EC50 [nM]
1 | CN[C@@H]1CC[C@H](C(=O)N[C@@H](Cc2cccc(OC)c2)C(=O)N2CCC(N3C(=O)C(C)(C)c4ccccc43)CC2)C1 [Example 31, (1S,3R)-N-((S)-1-(4-(3,3-dimethyl-2-oxoindolin-1-yl)piperidin-1-yl)-3-(3-methoxyphenyl)-1-oxopropan-2-yl)-3-(methylamino)cyclopentane-carboxamide] | ≤ 10
2 | CN[C@@H]1CC[C@H](C(=O)N[C@@H](Cc2ccc(OC)cc2)C(=O)N2CCC(N3C(=O)C(C)(C)c4ccccc43)CC2)C1 [Example 37, (1S,3R)-N-((S)-1-(4-(3,3-dimethyl-2-oxoindolin-1-yl)piperidin-1-yl)-3-(4-methoxyphenyl)-1-oxopropan-2-yl)-3-(methylamino)cyclopentanecarboxamide] | ≤ 10
3 | CC1(C)C(=O)N(C2CCN(C(=O)[C@H](CCc3ccccc3)NC(=O)CC3(N)CCCC3)CC2)c2ccccc21 [Example 12, (S)-2-(1-aminocyclopentyl)-N-(1-(4-(3,3-dimethyl-2-oxoindolin-1-yl)piperidin-1-yl)-1-oxo-4-phenylbutan-2-yl)acetamide] | ≤ 10
4 | CC1(C)C(=O)N(C2CCN(C(=O)[C@H](CCc3ccccc3)NC(=O)NCCN3CCCC3)CC2)c2ccccc21 [Example 64, (S)-1-(1-(4-(3,3-dimethyl-2-oxo-indolin-1-yl)piperidin-1-yl)-1-oxo-4-phenylbutan-2-yl)-3-(2-(pyrrolidin-1-yl)ethyl)urea] | ≤ 10
5 | CC1(C)C(=O)N(C2CCN(C(=O)[C@H](Cc3ccccc3C(F)(F)F)NC(=O)C3CCNCC3)CC2)c2ccccc21 [Example 78, (S)-N-(1-(4-(3,3-dimethyl-2-oxoindolin-1-yl)piperidin-1-yl)-1-oxo-3-(2-(trifluoro-methyl)phenyl)propan-2-yl)piperidine-4-carboxamide] | ≤ 10
6 | CC1(C)C(=O)N(C2CCN(C(=O)[C@H](CCc3ccccc3)NC(=O)NC[C@@H]3CCCN3)CC2)c2ccccc21 [Example 48, 1-((S)-1-(4-(3,3-dimethyl-2-oxo-indolin-1-yl)piperidin-1-yl)-1-oxo-4-phenylbutan-2-yl)-3-((S)-pyrrolidin-2-ylmethyl)urea] | ≤ 10
7 | CC1(C)C(=O)N(C2CCN(C(=O)[C@H](CCc3ccccc3)NC(=O)N[C@@H]3CCNC3)CC2)c2ccccc21 [Example 52, 1-((S)-1-(4-(3,3-dimethyl-2-oxo-indolin-1-yl)piperidin-1-yl)-1-oxo-4-phenylbutan-2-yl)-3-((R)-pyrrolidin-3-yl)urea] | ≤ 10
8 | CC1(C)C(=O)N(C2CCN(C(=O)[C@H](CCc3ccccc3)NC(=O)NC[C@@H]3CCCCN3)CC2)c2ccccc21 [Example 60, 1-((S)-1-(4-(3,3-dimethyl-2-oxo-indolin-1-yl)piperidin-1-yl)-1-oxo-4-phenylbutan-2-yl)-3-((S)-piperidin-2-ylmethyl)urea] | ≤ 10
9 | CN(C)CCNC(=O)N[C@@H](CCc1ccccc1)C(=O)N1CCC(N2C(=O)C(C)(C)c3ccccc32)CC1 [Example 65, (S)-1-(1-(4-(3,3-dimethyl-2-oxo-indolin-1-yl)piperidin-1-yl)-1-oxo-4-phenylbutan-2-yl)-3-(2-(dimethyl-amino)ethyl)urea] | ≤ 10
10 | CN[C@@H]1CC[C@H](C(=O)N[C@@H](Cc2ccc(F)cc2)C(=O)N2CCC(N3C(=O)C(C)(C)c4ccccc43)CC2)C1 [Example 27, (1S,3R)-N-((S)-1-(4-(3,3-dimethyl-2-oxoindolin-1-yl)piperidin-1-yl)-3-(4-fluorophenyl)-1-oxopropan-2-yl)-3-(methylamino)cyclopentane-carboxamide] | ≤ 10
11 | CN[C@@H]1CC[C@H](C(=O)N[C@@H](Cc2ccccc2C(F)(F)F)C(=O)N2CCC(N3C(=O)C(C)(C)c4ccccc43)CC2)C1 [Example 22, (1S,3R)-N-((S)-1-(4-(3,3-dimethyl-2-oxoindolin-1-yl)piperidin-1-yl)-1-oxo-3-(2-(trifluoromethyl)phenyl)propan-2-yl)-3-(methylamino)cyclopentane-carboxamide] | ≤ 10
12 | CC1(C)C(=O)N(C2CCN(C(=O)[C@H](CCc3ccccc3)NC(=O)NC[C@H]3CCCN3)CC2)c2ccccc21 [Example 51, 1-((S)-1-(4-(3,3-dimethyl-2-oxo-indolin-1-yl)piperidin-1-yl)-1-oxo-4-phenylbutan-2-yl)-3-((R)-pyrrolidin-2-ylmethyl)urea] | ≤ 10
13 | CC1(C)C(=O)N(C2CCN(C(=O)[C@H](Cc3ccccc3Cl)NC(=O)[C@@H]3CCCNC3)CC2)c2ccccc21 [Example 86, (R)-N-((S)-3-(2-chloro-phenyl)-1-(4-(3,3-dimethyl-2-oxoindolin-1-yl)piperidin-1-yl)-1-oxo-propan-2-yl)piperidine-3-carboxamide] | ≤ 10
14 | CC1(C)C(=O)N(C2CCN(C(=O)[C@H](CCc3ccccc3)NC(=O)N[C@H]3CCNC3)CC2)c2ccccc21 [Example 57, 1-((S)-1-(4-(3,3-dimethyl-2-oxo-indolin-1-yl)piperidin-1-yl)-1-oxo-4-phenylbutan-2-yl)-3-((S)-pyrrolidin-3-yl)urea] | ≤ 10
15 | CN[C@@H]1CC[C@H](C(=O)N[C@@H](Cc2ccc(Cl)cc2)C(=O)N2CCC(N3C(=O)C(C)(C)c4ccccc43)CC2)C1 [Example 21, (1S,3R)—N—((S)-3-(4-chlorophenyl)-1-(4-(3,3-dimethyl-2-oxoindolin-1-yl)piperidin-1-yl)-1-oxopropan-2-yl)-3-(methylamino)cyclopentanecarboxamide] | ≤ 10
16 | CN[C@@H]1CC[C@H](C(=O)N[C@@H](Cc2ccc(C(F)(F)F)cc2)C(=O)N2CCC(N3C(=O)C(C)(C)c4ccccc43)CC2)C1 [Example 36, (1S,3R)-N-((S)-1-(4-(3,3-dimethyl-2-oxoindolin-1-yl)piperidin-1-yl)-1-oxo-3-(4-(trifluoromethyl)phenyl)propan-2-yl)-3-(methylamino)cyclo-pentanecarboxamide] | ≤ 10
17 | CN[C@@H]1CC[C@H](C(=O)N[C@H](CC(=O)N2CCC(N3C(=O)C(C)(C)c4ccccc43)CC2)Cc2ccccc2)C1 [Example 43, (1S,3R)-N-((S)-4-(4-(3,3-dimethyl-2-oxoindolin-1-yl)piperidin-1-yl)-4-oxo-1-phenylbutan-2-yl)-3-(methylamino) cyclopentanecarboxamide] | ≤ 10
18 | CN[C@@H]1CC[C@H](C(=O)N[C@@H](CC(C)C)C(=O)N2CCC(N3C(=O)C(C)(C)c4ccccc43)CC2)C1 [Example 33, (1S,3R)-N-((S)-1-(4-(3,3-dimethyl-2-oxoindolin-1-yl)piperidin-1-yl)-4-methyl-1-oxopentan-2-yl)-3-(methylamino) cyclopentanecarboxamide] | ≤ 10
19 | CN(C[C@@H]1CCCN1)C(=O)N[C@@H](CCc1ccccc1)C(=O)N1CCC(N2C(=O)C(C)(C)c3ccccc32)CC1 [Example 50, 3-((S)-1-(4-(3,3-dimethyl-2-oxo-indolin-1-yl)piperidin-1-yl)-1-oxo-4-phenylbutan-2-yl)-1-methyl-1-((S)-pyrrolidin-2-ylmethyl)urea] | ≤ 10
20 | CC1(C)C(=O)N(C2CCN(C(=O)[C@H](CCc3ccccc3)NC(=O)NC[C@@H]3CCCN3)CC2)c2ccc(F)cc21 [Example 71, 1-((S)-1-(4-(5-fluoro-3,3-dimethyl-2-oxoindolin-1-yl)piperldin-1-yl)-1-oxo-4-phenylbutan-2-yl)-3-((S)-pyrrolidin-2-ylmethyl)urea] | ≤ 10
21 | CC1(C)C(=O)N(C2CCN(C(=O)[C@H](CCc3ccccc3)NC(=O)[C@@H](N)C(C)(C)C)CC2)c2ccccc21 [Example 3, (S)-2-amino-N-((S)-1-(4-(3,3-dimethyl-2-oxoindolin-1-yl)piperidin-1-yl)-1-oxo-4-phenylbutan-2-yl)-3,3-dimethylbutanamide] | ≤ 10
22 | CN[C@H]1CCN(C(=O)N[C@@H](Cc2ccc(Cl)cc2)C(=O)N2CCC(N3C(=O)C(C)(C)c4ccccc43)CC2)C1 [Example 94, (S)-N-((S)-3-(4-chloro-phenyl)-1-(4-(3,3-dimethyl-2-oxoindolin-1-yl)piperidin-1-yl)-1-oxopropan-2-yl)-3-(methylamino)pyrrolidine-1-carboxamide] | ≤ 10
23 | CN[C@@H]1CC[C@H](C(=O)N[C@@H](Cc2c[nH]c3ccccc23)C(=O)N2CCC(N3C(=O)C(C)(C)c4ccccc43)CC2)C1 [Example 34, (1S,3R)-N-((S)-1-(4-(3,3-dimethyl-2-oxoindolin-1-yl)piperidin-1-yl)-3-(1H-indol-3-yl)-1-oxopropan-2-yl)-3-(methylamino)cyclopentane-carboxamide] | ≤ 10
24 | CN[C@H]1CCN(C(=O)N[C@@H](CCc2ccccc2)C(=O)N2CCC(N3C(=O)C(C)(C)c4ccccc43)CC2)C1 [Example 47, (S)—N—((S)-1-(4-(3,3-dimethyl-2-oxoindolin-1-yl)piperidin-1-yl)-1-oxo-4-phenylbutan-2-yl)-3-(methylamino)pyrrolidine-1-carboxamide] | ≤ 10

same assay, conditions: ED50 (nM), Table 15; functional activity toward GPR38 (motilin receptor), (S) versus (R) amino acid linker

Row | Structure (SMILES) | EC50 [nM]
25 | CC1(C)C(=O)N(C2CCN(C(=O)[C@@H](CCc3ccccc3)NC(=O)[C@@H]3CCCNC3)CC2)c2ccccc21 [Example 98] | 6210
26 | CN[C@H]1CCN(C(=O)N[C@@H](CCc2ccccc2)C(=O)N2CCC(N3C(=O)C(C)(C)c4ccccc43)CC2)C1 [Example 47, (S)—N—((S)-1-(4-(3,3-dimethyl-2-oxoindolin-1-yl)piperidin-1-yl)-1-oxo-4-phenylbutan-2-yl)-3-(methylamino)pyrrolidine-1-carboxamide] | 0.98
